Assay results as given in patent publication US20240376085A1 (Janssen Pharmaceutica NV, priority 2021, published 2024).

Key:
[1] = molecular target: T1, IL-17A : IL-17RA binding (Homo sapiens, UniProt Q16552, K93Q); experiment: IL-17A(FLAG-tagged):IL-17RA(His-tagged) binding disruption Eu-HTRF assay, Protocol 1; settings: FLAG-IL-17A 2.5 nM at 2x final concentration; average if tested more than once
T1 construct: Name: IL-17A-Flag
Method in brief: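 IC50 came from a one-site competition fit of the acceptor/donor (665/620 nm) HTRF ratio. His-tagged IL-17RA, Eu-anti-FLAG and D2-anti-His were added after a 1 h rt compound preincubation with FLAG-tagged IL-17A dimer in PBS/0.01% Triton X-100, followed by 2 h at rt before reading.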

[2] = tested on: IL-17A-induced G-CSF production in human normal keratinocyte (NHK); experiment: NHK assay: IL-17A-induced G-CSF production in normal human keratinocytes; format: cell-based; settings: Homo sapiens, Keratinocyte, 24 h, IL-17A 5 ng/mL, average if tested more than once
Method in brief: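 Compound titrations are first mixed with recombinant human IL-17A for 1 h at room temperature. The mixture goes onto adult normal human keratinocytes (final IL-17A 5 ng/mL, 5% FBS, 0.2% DMSO) for 24 h at 37 °C. Secreted G-CSF is then measured by HTRF and IC50 fitted.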

T1 sequence (Q16552 with tags, fused parts or gaps K93Q): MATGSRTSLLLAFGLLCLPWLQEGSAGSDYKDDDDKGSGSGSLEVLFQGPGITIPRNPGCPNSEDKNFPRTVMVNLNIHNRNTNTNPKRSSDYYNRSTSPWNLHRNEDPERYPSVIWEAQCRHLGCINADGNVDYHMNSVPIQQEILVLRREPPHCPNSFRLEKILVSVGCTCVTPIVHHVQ

| Structure (SMILES) | IC50 [1] [nM] | IC50 [2] [nM] |
| --- | --- | --- |
| C[C@@H](NC(=O)CCC(F)(F)F)c1ccc2nc([C@@H](NC(=O)c3cnnn3CCC(F)F)C3CCC(F)(F)CC3)[nH]c2c1 [Example 74, N—((S)-(4,4-Difluorocyclohexyl)(6-((R)-1-(4,4,4-trifluorobutanamido)ethyl)-1H-benzo[d]imidazol-2-yl)methyl)-1-(3,3-difluoropropyl)-1H-1,2,3-triazole-5-carboxamide] | > 100 | > 100 |
| C[C@@H](NC(=O)CCC(F)(F)F)c1ccc2nc([C@@H](NC(=O)c3cn(CC(F)(F)F)nc3C3CC3)C3CCC(F)(F)CC3)[nH]c2c1 [Example 75, 3-Cyclopropyl-N—((S)-(4,4-difluorocyclohexyl)(6-((R)-1-(4,4,4-trifluorobutanamido)ethyl)-1H-benzo[d]imidazol-2-yl)methyl)-1-(2,2,2-trifluoroethyl)-1H-pyrazole-4-carboxamide] | > 100 | > 100 |
| [2H]C([2H])([2H])C([2H])([2H])n1nccc1C(=O)N[C@@H](COC(C)(C)C(F)(F)F)c1nc2ccc([C@H](NC(=O)CC3CC(F)(F)C3)C3CC3)cc2[nH]1 [Example 76, N—((R)-1-(6-((R)-Cyclopropyl(2-(3,3-difluorocyclobutyl)acetamido)methyl)-1H-benzo[d]imidazol-2-yl)-2-((1,1,1-trifluoro-2-methylpropan-2-yl)oxy)ethyl)-1-(ethyl-d5)-1H-pyrazole-5-carboxamide] | < 50 | < 50 |
| Cc1nocc1C(=O)N[C@@H](COC(C)(C)C(F)(F)F)c1nc2ccc([C@H](NC(=O)CC3CC(F)(F)C3)C3CC3)cc2[nH]1 [Example 77, N—((R)-1-(6-((R)-Cyclopropyl(2-(3,3-difluorocyclobutyl)acetamido)methyl)-1H-benzo[d]imidazol-2-yl)-2-((1,1,1-trifluoro-2-methylpropan-2-yl)oxy)ethyl)-3-methylisoxazole-4-carboxamide] | 50 to 100 | 50 to 100 |
| C[C@@H](NC(=O)CCC(F)(F)F)c1ccc2[nH]c([C@@H](NC(=O)c3cnn(CC45CC(C#N)(C4)C5)n3)C3CCC(F)(F)CC3)nc2c1 [Example 78, 2-((3-Cyanobicyclo[1.1.1]pentan-1-yl)methyl)-N—((S)-(4,4-difluorocyclohexyl)(5-((R)-1-(4,4,4-trifluorobutanamido)ethyl)-1H-benzo[d]imidazol-2-yl)methyl)-2H-1,2,3-triazole-4-carboxamide] | > 100 | > 100 |
| C[C@@H](NC(=O)CCC(F)(F)F)c1ccc2[nH]c([C@@H](NC(=O)c3cn(CC45CC(C#N)(C4)C5)nn3)C3CCC(F)(F)CC3)nc2c1 [Example 79, 1-((3-Cyanobicyclo[1.1.1]pentan-1-yl)methyl)-N—((S)-(4,4-difluorocyclohexyl)(5-((R)-1-(4,4,4-trifluorobutanamido)ethyl)-1H-benzo[d]imidazol-2-yl)methyl)-1H-1,2,3-triazole-4-carboxamide] | > 100 | > 100 |
| C[C@@H](NC(=O)CCC(F)(F)F)c1ccc2[nH]c([C@@H](NC(=O)c3cnnn3CC3CC3(F)F)C3CCC(F)(F)CC3)nc2c1 (stereo partly drawn) [Example 80, N—((S)-(4,4-Difluorocyclohexyl)(5-((R)-1-(4,4,4-trifluorobutanamido)ethyl)-1H-benzo[d]imidazol-2-yl)methyl)-1-((2,2-difluorocyclopropyl)methyl)-1H-1,2,3-triazole-5-carboxamide] | > 100 | 50 to 100 |
| C[C@@H](NC(=O)CCC(F)(F)F)c1ccc2[nH]c([C@@H](NC(=O)c3cnn(CC4CC4(F)F)n3)C3CCC(F)(F)CC3)nc2c1 (stereo partly drawn) [Example 81, N—((S)-(4,4-Difluorocyclohexyl)(5-((R)-1-(4,4,4-trifluorobutanamido)ethyl)-1H-benzo[d]imidazol-2-yl)methyl)-2-((2,2-difluorocyclopropyl)methyl)-2H-1,2,3-triazole-4-carboxamide] | > 100 | > 100 |
| C[C@@H](NC(=O)CCC(F)(F)F)c1ccc2[nH]c([C@@H](NC(=O)c3cnnn3CC3CC(F)(F)C3(F)F)C3CCC(F)(F)CC3)nc2c1 (stereo partly drawn) [Example 82, N—((S)-(4,4-Difluorocyclohexyl)(5-((R)-1-(4,4,4-trifluorobutanamido)ethyl)-1H-benzo[d]imidazol-2-yl)methyl)-1-((2,2,3,3-tetrafluorocyclobutyl)methyl)-1H-1,2,3-triazole-5-carboxamide] | > 100 | > 100 |
| C[C@@H](NC(=O)CCC(F)(F)F)c1ccc2[nH]c([C@@H](NC(=O)c3cnn(CC4CC(F)(F)C4(F)F)n3)C3CCC(F)(F)CC3)nc2c1 (stereo partly drawn) [Example 83, N—((S)-(4,4-Difluorocyclohexyl)(5-((R)-1-(4,4,4-trifluorobutanamido)ethyl)-1H-benzo[d]imidazol-2-yl)methyl)-2-((2,2,3,3-tetrafluorocyclobutyl)methyl)-2H-1,2,3-triazole-4-carboxamide] | > 100 | > 100 |
| C[C@@H](NC(=O)CCC(F)(F)F)c1ccc2[nH]c([C@@H](NC(=O)c3cn(CC4CC(F)(F)C4(F)F)nn3)C3CCC(F)(F)CC3)nc2c1 (stereo partly drawn) [Example 84, N—((S)-(4,4-Difluorocyclohexyl)(5-((R)-1-(4,4,4-trifluorobutanamido)ethyl)-1H-benzo[d]imidazol-2-yl)methyl)-1-((2,2,3,3-tetrafluorocyclobutyl)methyl)-1H-1,2,3-triazole-4-carboxamide] | > 100 | > 100 |
| CC(C(F)F)n1cc(C(=O)N[C@H](c2nc3cc([C@@H](C)NC(=O)CCC(F)(F)F)ccc3[nH]2)C2CCC(F)(F)CC2)nn1 (stereo partly drawn) [Example 85, N—((S)-(4,4-Difluorocyclohexyl)(5-((R)-1-(4,4,4-trifluorobutanamido)ethyl)-1H-benzo[d]imidazol-2-yl)methyl)-1-(1,1-difluoropropan-2-yl)-1H-1,2,3-triazole-4-carboxamide] | > 100 | > 100 |
| C[C@@H](NC(=O)CCC(F)(F)F)c1ccc2[nH]c([C@@H](NC(=O)c3cnnn3CC3CCC3(F)F)C3CCC(F)(F)CC3)nc2c1 (stereo partly drawn) [Example 86, 1-((2,2-Difluorocyclobutyl)methyl)-N—((S)-(4,4-difluorocyclohexyl)(5-((R)-1-(4,4,4-trifluorobutanamido)ethyl)-1H-benzo[d]imidazol-2-yl)methyl)-1H-1,2,3-triazole-5-carboxamide] | > 100 | > 100 |
| C[C@@H](NC(=O)CCC(F)(F)F)c1ccc2[nH]c([C@@H](NC(=O)c3cnn(CC4CCC4(F)F)n3)C3CCC(F)(F)CC3)nc2c1 (stereo partly drawn) [Example 87, 2-((2,2-Difluorocyclobutyl)methyl)-N—((S)-(4,4-difluorocyclohexyl)(5-((R)-1-(4,4,4-trifluorobutanamido)ethyl)-1H-benzo[d]imidazol-2-yl)methyl)-2H-1,2,3-triazole-4-carboxamide] | > 100 | > 100 |
| C[C@@H](NC(=O)CCC(F)(F)F)c1ccc2[nH]c([C@@H](NC(=O)c3cn(CC4CCC4)nc3C#N)C3CCC(F)(F)CC3)nc2c1 [Example 88, 3-Cyano-1-(cyclobutylmethyl)-N—((S)-(4,4-difluorocyclohexyl)(5-((R)-1-(4,4,4-trifluorobutanamido)ethyl)-1H-benzo[d]imidazol-2-yl)methyl)-1H-pyrazole-4-carboxamide] | > 100 | > 100 |
| C[C@@H](NC(=O)CCC(F)(F)F)c1ccc2[nH]c([C@@H](NC(=O)c3cn(CC4CCC4)nc3C(N)=O)C3CCC(F)(F)CC3)nc2c1 [Example 89, 1-(Cyclobutylmethyl)-N^4—((S)-(4,4-difluorocyclohexyl)(5-((R)-1-(4,4,4-trifluorobutanamido)ethyl)-1H-benzo[d]imidazol-2-yl)methyl)-1H-pyrazole-3,4-dicarboxamide] | > 100 | > 100 |
| C[C@@H](NC(=O)CCC(F)(F)F)c1ccc2[nH]c([C@@H](NC(=O)c3c(C#N)cnn3CC3CCC3)C3CCC(F)(F)CC3)nc2c1 [Example 90, 4-Cyano-1-(cyclobutylmethyl)-N—((S)-(4,4-difluorocyclohexyl)(5-((R)-1-(4,4,4-trifluorobutanamido)ethyl)-1H-benzo[d]imidazol-2-yl)methyl)-1H-pyrazole-5-carboxamide] | > 100 | > 100 |
| C[C@@H](NC(=O)CCC(F)(F)F)c1ccc2[nH]c([C@@H](NC(=O)c3nn(CC4CCC4)cc3C#N)C3CCC(F)(F)CC3)nc2c1 [Example 91, 4-Cyano-1-(cyclobutylmethyl)-N—((S)-(4,4-difluorocyclohexyl)(5-((R)-1-(4,4,4-trifluorobutanamido)ethyl)-1H-benzo[d]imidazol-2-yl)methyl)-1H-pyrazole-3-carboxamide] | > 100 | > 100 |
| CCn1nc(C(=O)N[C@H](c2nc3cc([C@@H](C)NC(=O)CCC(F)(F)F)ccc3[nH]2)C2CCC(F)(F)CC2)cc1C(F)(F)F [Example 92, N—((S)-(4,4-Difluorocyclohexyl)(5-((R)-1-(4,4,4-trifluorobutanamido)ethyl)-1H-benzo[d]imidazol-2-yl)methyl)-1-ethyl-5-(trifluoromethyl)-1H-pyrazole-3-carboxamide] | > 100 | > 100 |
| C[C@@H](NC(=O)CCC(F)(F)F)c1ccc2[nH]c([C@@H](NC(=O)c3cc(O)n(CCC(F)(F)F)n3)C3CCC(F)(F)CC3)nc2c1 [Example 93, N—((S)-(4,4-Difluorocyclohexyl)(5-((R)-1-(4,4,4-trifluorobutanamido)ethyl)-1H-benzo[d]imidazol-2-yl)methyl)-5-hydroxy-1-(3,3,3-trifluoropropyl)-1H-pyrazole-3-carboxamide] | > 100 | > 100 |
